Test results from patent publication US8952024B2, “Herbicidal pyrimidone derivatives” (E I du Pont de Nemours and Company, priority 2009, dated 2015).

What was measured:
Experiment in all cases: Test B pre-/postemergence plant response
Assay type in all cases: in vivo
Settings in all cases: Postemergence
wild oat (Avena fatua) = test system: wild oat (Avena fatua)
Summary of the method: (§1)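 Greenhouse herbicide screen. Pre- and postemergence (1- to 4-leaf) spray of compound in solvent/surfactant mixture; loam–sand soil for pre, peat/vermiculite medium for post. Visual control rating 0–100 at 13 to 15 days after treatment.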

[1] = test system: Surinam grass (Brachiaria decumbens)
Summary of the method: as §1

[2] = test system: woolly cupgrass (Eriochloa villosa)
Summary of the method: as §1

[3] = test system: Italian ryegrass (Lolium multiflorum)
Summary of the method: as §1

[4] = test system: bermudagrass (Cynodon dactylon)
Summary of the method: as §1

[5] = test system: cocklebur (Xanthium strumarium)
Summary of the method: as §1

[6] = test system: downy bromegrass (Bromus tectorum)
Summary of the method: as §1

[7] = test system: morningglory (Ipomoea coccinea)
Summary of the method: as §1

[8] = test system: blackgrass (Alopecurus myosuroides)
Summary of the method: as §1

[9] = test system: ragweed (common ragweed, Ambrosia elatior)
Summary of the method: as §1

kochia (Kochia scoparia) = test system: kochia (Kochia scoparia)
Summary of the method: as §1

[10] = test system: large crabgrass (Digitaria sanguinalis)
Summary of the method: as §1

[11] = test system: wheat (Triticum aestivum)
Summary of the method: as §1

[12] = 31 g ai/ha, 0 to 100 scale (0 no effect, 100 complete control)
[13] = 62 g ai/ha, scale 0 to 100 (0 no effect, 100 complete control)
[14] = 125 g ai/ha, scale 0 to 100 (0 no effect, 100 complete control)
[15] = 250 g ai/ha, scale 0 to 100 (0 no effect, 100 complete control), 13 to 15 days

## CC1(C)CC(=O)C(C(=O)c2cnc(-c3ccccc3)n(-c3ccccc3)c2=O)=C(O)C1 [Compound 225]
Wild oat (Avena fatua); 16 g ai/ha, 0 to 100 scale
  Plant response rating, Oat, Wild: 25
Wild oat (Avena fatua); [12]
  Plant response rating, Oat, Wild: 45
Wild oat (Avena fatua); [13]
  Plant response rating, Oat, Wild: 50
[1]; 16 g ai/ha, 0 to 100 scale
  Plant response rating, Surinam Grass: 35
[1]; [12]
  Plant response rating, Surinam Grass: 75
[1]; [13]
  Plant response rating, Surinam Grass: 75
[2]; 16 g ai/ha, 0 to 100 scale
  Plant response rating, Cupgrass, Woolly: 70
[2]; [12]
  Plant response rating, Cupgrass, Woolly: 75
[2]; [13]
  Plant response rating, Cupgrass, Woolly: 75
[2]; [14]
  Plant response rating, Cupgrass, Woolly: 85
[3]; 16 g ai/ha, 0 to 100 scale
  Plant response rating, Ryegrass, Italian: 0
[3]; [12]
  Plant response rating, Ryegrass, Italian: 0
[3]; [13]
  Plant response rating, Ryegrass, Italian: 35
[4]; 16 g ai/ha, 0 to 100 scale
  Plant response rating, Bermudagrass: 40
[4]; [12]
  Plant response rating, Bermudagrass: 80
[4]; [13]
  Plant response rating, Bermudagrass: 85
[4]; [14]
  Plant response rating, Bermudagrass: 85
[5]; 16 g ai/ha, 0 to 100 scale
  Plant response rating, Cocklebur: 85
[5]; [12]
  Plant response rating, Cocklebur: 98
[5]; [13]
  Plant response rating, Cocklebur: 100
[5]; [14]
  Plant response rating, Cocklebur: 100
[6]; 16 g ai/ha, 0 to 100 scale
  Plant response rating, Bromegrass, Downy: 30
[6]; [12]
  Plant response rating, Bromegrass, Downy: 35
[6]; [13]
  Plant response rating, Bromegrass, Downy: 70
[6]; [14]
  Plant response rating, Bromegrass, Downy: 85
[7]; 16 g ai/ha, 0 to 100 scale
  Plant response rating, Morningglory: 80
[7]; [12]
  Plant response rating, Morningglory: 95
[7]; [13]
  Plant response rating, Morningglory: 95
[7]; [14]
  Plant response rating, Morningglory: 95
[8]; 16 g ai/ha, 0 to 100 scale
  Plant response rating, Blackgrass: 0
[8]; [12]
  Plant response rating, Blackgrass: 0
[8]; [13]
  Plant response rating, Blackgrass: 5
[8]; [14]
  Plant response rating, Blackgrass: 15
[9]; 16 g ai/ha, 0 to 100 scale
  Plant response rating, Ragweed: 70
[9]; [12]
  Plant response rating, Ragweed: 75
[9]; [13]
  Plant response rating, Ragweed: 80
Kochia (Kochia scoparia); 16 g ai/ha, 0 to 100 scale
  Plant response rating, Kochia: 5
Kochia (Kochia scoparia); [12]
  Plant response rating, Kochia: 5
Kochia (Kochia scoparia); [13]
  Plant response rating, Kochia: 10
Kochia (Kochia scoparia); [14]
  Plant response rating, Kochia: 15
[10]; 16 g ai/ha, 0 to 100 scale
  Plant response rating, Crabgrass, Large: 70
[10]; [12]
  Plant response rating, Crabgrass, Large: 75
[10]; [13]
  Plant response rating, Crabgrass, Large: 85
[10]; [14]
  Plant response rating, Crabgrass, Large: 95
[11]; 16 g ai/ha, 0 to 100 scale
  Plant response rating, Wheat: 20
[11]; [12]
  Plant response rating, Wheat: 30
[11]; [13]
  Plant response rating, Wheat: 40

## CCCn1c(-c2ccsc2)ncc(C(=O)C2=C(O)C3CCC(C3)C2=O)c1=O (stereo not shown) [Compound 227]
Wild oat (Avena fatua); [12]
  Plant response rating, Oat, Wild: 0
Wild oat (Avena fatua); [13]
  Plant response rating, Oat, Wild: 0
Wild oat (Avena fatua); [15]
  Plant response rating, Oat, Wild: 30
[1]; [12]
  Plant response rating, Surinam Grass: 55
[1]; [13]
  Plant response rating, Surinam Grass: 70
[1]; [15]
  Plant response rating, Surinam Grass: 95
[2]; [12]
  Plant response rating, Cupgrass, Woolly: 55
[2]; [13]
  Plant response rating, Cupgrass, Woolly: 75
[2]; [14]
  Plant response rating, Cupgrass, Woolly: 90
[2]; [15]
  Plant response rating, Cupgrass, Woolly: 95
[3]; [12]
  Plant response rating, Ryegrass, Italian: 0
[3]; [13]
  Plant response rating, Ryegrass, Italian: 0
[3]; [15]
  Plant response rating, Ryegrass, Italian: 10
[4]; [12]
  Plant response rating, Bermudagrass: 75
[4]; [13]
  Plant response rating, Bermudagrass: 75
[4]; [14]
  Plant response rating, Bermudagrass: 85
[4]; [15]
  Plant response rating, Bermudagrass: 90
[5]; [12]
  Plant response rating, Cocklebur: 75
[5]; [13]
  Plant response rating, Cocklebur: 80
[5]; [14]
  Plant response rating, Cocklebur: 95
[5]; [15]
  Plant response rating, Cocklebur: 95
[6]; [12]
  Plant response rating, Bromegrass, Downy: 0
[6]; [13]
  Plant response rating, Bromegrass, Downy: 0
[6]; [14]
  Plant response rating, Bromegrass, Downy: 0
[6]; [15]
  Plant response rating, Bromegrass, Downy: 25
[7]; [12]
  Plant response rating, Morningglory: 100
[7]; [13]
  Plant response rating, Morningglory: 100
[7]; [14]
  Plant response rating, Morningglory: 100
[7]; [15]
  Plant response rating, Morningglory: 100
[8]; [12]
  Plant response rating, Blackgrass: 0
[8]; [13]
  Plant response rating, Blackgrass: 0
[8]; [14]
  Plant response rating, Blackgrass: 5
[8]; [15]
  Plant response rating, Blackgrass: 20
[9]; [12]
  Plant response rating, Ragweed: 60
[9]; [13]
  Plant response rating, Ragweed: 70
[9]; [15]
  Plant response rating, Ragweed: 85
Kochia (Kochia scoparia); [12]
  Plant response rating, Kochia: 70
Kochia (Kochia scoparia); [13]
  Plant response rating, Kochia: 75
Kochia (Kochia scoparia); [14]
  Plant response rating, Kochia: 85
Kochia (Kochia scoparia); [15]
  Plant response rating, Kochia: 100
[10]; [12]
  Plant response rating, Crabgrass, Large: 80
[10]; [13]
  Plant response rating, Crabgrass, Large: 80
[10]; [14]
  Plant response rating, Crabgrass, Large: 85
[10]; [15]
  Plant response rating, Crabgrass, Large: 90
[11]; [12]
  Plant response rating, Wheat: 0
[11]; [13]
  Plant response rating, Wheat: 0
[11]; [15]
  Plant response rating, Wheat: 20
